We go through four compounds from patent US20140155362A1, “BHQ-CONJUGATES, AND RELATED COMPOUNDS, METHODS OF MAKING THE SAME, AND METHODS OF USE THEREOF” (priority 2011, published 2014).

Data set [1] is described as follows: Determination of the uncaging quantum efficiency (Qu), 1-photon photolysis at 365 nm. It is filed as physicochemical. The note with it: for Qu (uncaging quantum efficiency): 365±15 nm, KMOPS. On the procedure: Determination of the Uncaging Quantum Efficiency (Qu).
(§1) The quantum efficiency was calculated using the equation Qu=(Iσt90%)^−1, where I is the irradiation intensity in einstein·cm^−2, σ is the decadic extinction coefficient (1,000 times ε) and t90% is the time in seconds required for the conversion of 90% of the starting material to product. To find t90%, a solution of BHQ-O-5HT in KMOPS was prepared and placed in a cuvette along with a small stir bar. While stirring, the solution was irradiated with UV light from a mercury lamp (Spectroline SB-100P, Spectronics Corporation) equipped with two glass filters (CS0-52, CS7-60, Ace Glass) so that the wavelength was restricted to 365±15 nm. Periodically, 20-μL aliquots were removed and analyzed by HPLC. The time points collected were as follows: 0, 5, 10, 20, 30, 60, 90, and 120 s. Percent BHQ-O-5HT remaining was plotted verses time of photolysis. A simple single exponential decay curve provided the best fit for the data and was used to extrapolate t90%. The lamp's UV intensity I was measured using potassium ferrioxalate actinometry. Initially, 6 mM potassium ferrioxalate solution (3 mL) was irradiated with the mercury lamp for 60 s. A portion of this solution (2 mL) was combined with aqueous buffer (3 mL), 0.1% phenanthroline solution (3 mL), and 2M KF solution (1 mL) in a 25-mL volumetric flask. Deionized water was added to generate a 25 mL solution. A blank solution was also prepared using the same method, but the potassium ferrioxalate used in the blank was not irradiated. Both solutions were allowed to sit for one hour and the blank was then used as a baseline against which the absorbance of the irradiated solution was measured at 510 nm. The following equation was used to calculate lamp intensity: […]
where V3 is the volume of dilution (25 mL), V2 is the volume of irradiated potassium ferrioxalate solution taken for analysis (2 mL), ΔD510 is the absorption of the solution at 510 nm, Σ510 is the actinometry extinction coefficient (1.11×10^4 M^−1 cm^−1),)Fe is the quantum yield for production of ferrous ions from potassium ferrioxalate at 365 nm, and t represents the time of irradiation. The ΔD510 value used for calculations is the average of two measurements taken before and after irradiation of BHQ-O-5HT. Compilation of the measurements yielded an uncaging quantum efficiency Qu, of 0.30. The experiment was repeated for BHQ-N-5HT, and compilation of the measurements yielded an uncaging quantum efficiency Qu of 0.10.
as §1, with “c)” for “ε)”, “BHQ-VAA” for “BHQ-O-5HT”, “irradiated.” for “irradiated. Both solutions were allowed to sit for one hour and the blank was then used as a baseline against which the absorbance of the irradiated solution was measured at 510 nm. The following equation was used to calculate lamp intensity:”

The subject of data set [2] is ex vivo zebrafish brain (optic tectum). Nature of the data set: Electrophysiological recording of PTZ-induced seizure activity in ex vivo zebrafish brain. To be noted: PTZ 15 mM-induced seizure. On the procedure:
BHQ-O-5HT Mediates the Light Activation of 5HT in an Ex Vivo Zebrafish Brain Preparation (FIG. 1.1).
A microelectrode inserted into the optic tectum was used to record seizure activity induced by application of pentalenetetrazole (PTZ, 15 mM). The ictal and interictal spikes can be observed at regular intervals. After 1040 s, BHQ-O-5HT (1 mM) was added. No change in the amplitude of the ictal spikes was observed. At 1640 s, the preparation was exposed to a brief (˜1 ms) flash of 365-nm light. […] Since 5HT is an inhibitor of seizures,^1,2 this is the expected result.
Procedure for electrophysiological recording in ex vivo zebrafish brain:
An adult zebrafish brain was obtained by dissection in oxygenated artificial cerebrospinal fluid (ACSF).* A sharp glass pipet microelectrode (15 MΩ impedance), loaded with ACSF, was inserted into the optic tectum. A chloride-coated silver wire (0.010 in., A-M Systems, Inc. Sequim, Wash.) reference (15 MΩ impedance) was placed contra-laterally, adjacent to the brain. Neuronal activity was recorded using an MDA-41 AC Differential Amplifier (Bak Electronics, Mount Airy, Md.) and a Tektronix DPO 3012 Digital Phosphor Oscilloscope (Beaverton, Oreg.) using MATLAB. Baseline activity was recorded for 5 min followed by introduction of PTZ (15 mM). […] The response was recorded for 30 min.

With `O=C(NCCc1c[nH]c2ccc(O)cc12)OCc1ccc2ccc(O)c(Br)c2n1` [BHQ-N-5HT], in data set [1] (Table 1.1), the Sensitivity Qu × ε was determined as 210 M⁻¹ cm⁻¹ and the “Qu (uncaging quantum efficiency)” value is 0.10.
Regarding `NCCc1c[nH]c2ccc(OCc3ccc4ccc(O)c(Br)c4n3)cc12` [BHQ-O-5HT], the “change in amplitude of ictal spikes, before light” value in data set [2] (compound 1 mM added, no irradiation) was “No change”. In addition, the “change in amplitude of ictal spikes, after light flash” value in data set [2] (compound 1 mM, brief (~1 ms) flash of 365-nm light) was “immediate reduction in the amplitude of the ictal spikes”. Also, in data set [1] (Table 1.1), the Sensitivity Qu × ε came out at 600 M⁻¹ cm⁻¹ and the “Qu (uncaging quantum efficiency)” value was 0.30.
Take `Oc1ccc2ccc(COc3ccccc3)nc2c1Br` [BHQ-OPh]: the “quantum efficiency Qu” value in data set [1] (1-photon photolysis at 365 nm, pH 7.2 KMOPS) worked out at 0.19.
As to `COc1cc(CNC(C)=O)ccc1OCc1ccc2ccc(O)c(Br)c2n1` [BHQ-VAA], in data set [1] (Table 2.1), the Sensitivity Qu × ε is 486 M⁻¹ cm⁻¹ and the “Qu (uncaging quantum efficiency)” value is listed as 0.18.
